Results as given in patent US4307114A, “Aldose reductase inhibition by (Z)-5-fluoro-2-methyl-1-[[4-(methylsulfinyl)phenyl]methylene]-1H-indene- 3-acetic acid” (Ayerst, McKenna & Harrison, Inc., priority 1980, dated 1981).

How the values were obtained:
galactosaemic rats = assay: dulcitol accumulation in lenses and sciatic nerves of galactosaemic rats; type: in vivo, rat; details: for Dulcitol Accumulation Sicatic Nerves Percent Decrease / Dulcitol Accumulation Lenses Percent Decrease / Dulcitol Accumulation Sicatic Nerves / Dulcitol Accumulation Lenses: four days
Excerpt: The aldose reductase inhibiting property of sulindac and its utilization in diminishing and alleviating diabetic complications also are demonstrable in experiments using galactosaemic rats, see D. Dvornik et al., Science, 182, 1146 (1973). Such experiments are exemplified hereinbelow after the listing of the following general comments pertaining to these experiments:
(a) Four or more groups of six male rats, 50-70 g, Sprague-Dawley strain, were used. The first group, the control group, was fed a mixture of laboratory chow (rodent laboratory chow, Purina) and glucose at 20% (w/w %) concentration. The untreated galactosaemic group was fed a similar diet in which galactose is substituted for glucose. The other groups were fed diets containing various amounts of sulindac in the galactose containing diet. The concentration of galactose in the diet of the treated groups was the same as that for the untreated galactosaemic group.
(b) After four days, the animals were killed by decapitation. The eyeballs were removed and punctured with a razor blade; the freed lenses were rolled gently on filter paper and weighed. The sciatic nerves were dissected as completely as possible and weighed. Both tissues were frozen and kept up to two weeks before being analyzed for dulcitol.
(c) The tissues were homoginized in 5% (w/v) trichloroacetic acid and the polyol determination on the extracts was performed by a modification of the procedure of M. Kraml and L. Cosyns, Clin. Biochem., 2, 373 (1969). Only two minor reagent changes were made: (a) The rinsing mixture was an aqueous 5% (w/v) trichloroacetic acid solution and (b) the stock solution was prepared by dissolving 25 mg of dulcitol in 100 ml of an aqueous trichloroacetic acid solution. [N.B.: For each experiment the average value found in the tissue from rats fed the glucose diet was substracted from the individual values found in the corresponding rat tissue to obtain the amount of polyol accumulated].

lens aldose reductase = target: T1, lens aldose reductase (Bos taurus, UniProt P16116); assay: in vitro aldose reductase inhibition test (modified Hayman and Kinoshita procedure, enzyme from bovine lens); type: biochemical
T1 construct: preparation of the enzyme from bovine lens; from tissue; host or cells: bovine lens
Description: In the present case the procedure of Hayman and Kinoshita is modified in that the final chromatography step is omitted in the preparation of the enzyme from bovine lens.
The following results were obtained when sulindac was evaluated in the above in vitro test: […]

[1] = Experiment 2, 62 mg/kg/day in diet, p < 0.01

CC1=C(CC(=O)O)c2cc(F)ccc2/C1=C\c1ccc([S+](C)[O-])cc1 (stereo not drawn) [Sulindac, (Z)-5-Fluoro-2-methyl-1-[[4-(methylsulfinyl)phenyl]methylene]-1H-indene-3-acetic acid]
Dulcitol Accumulation Sicatic Nerves Percent Decrease (galactosaemic rats; Experiment 1, 31 mg/kg/day in diet, p < 0.001): 39% | Dulcitol Accumulation Lenses Percent Decrease (galactosaemic rats; Experiment 1, 31 mg/kg/day in diet, t test N.S.): 8% | Dulcitol Accumulation Sicatic Nerves (galactosaemic rats; Experiment 1, 31 mg/kg/day in galactose diet, untreated 1.67 ± 0.08): 1.02 ± 0.09 µg/mg | Dulcitol Accumulation Lenses (galactosaemic rats; Experiment 1, 31 mg/kg/day in galactose diet, untreated 12.01 ± 0.38): 11.10 ± 0.28 µg/mg | Dulcitol Accumulation Lenses Percent Decrease (galactosaemic rats; Experiment 2, 25 mg/kg/day in diet, p < 0.01): 14% | Dulcitol Accumulation Sicatic Nerves Percent Decrease (galactosaemic rats; Experiment 2, 25 mg/kg/day in diet, t test N.S.): 36% | Dulcitol Accumulation Sicatic Nerves (galactosaemic rats; Experiment 2, 25 mg/kg/day in galactose diet, untreated 1.30 ± 0.14): 0.83 ± 0.19 µg/mg | Dulcitol Accumulation Lenses (galactosaemic rats; Experiment 2, 25 mg/kg/day in galactose diet, untreated 12.10 ± 0.30): 10.46 ± 0.32 µg/mg | Dulcitol Accumulation Lenses Percent Decrease (galactosaemic rats; Experiment 2, 47 mg/kg/day in diet, p < 0.01): 12% | Dulcitol Accumulation Sicatic Nerves Percent Decrease (galactosaemic rats; Experiment 2, 47 mg/kg/day in diet, p < 0.05): 34% | Dulcitol Accumulation Sicatic Nerves (galactosaemic rats; Experiment 2, 47 mg/kg/day in galactose diet, untreated 1.30 ± 0.14): 0.85 ± 0.10 µg/mg | Dulcitol Accumulation Lenses (galactosaemic rats; Experiment 2, 47 mg/kg/day in galactose diet, untreated 12.10 ± 0.30): 10.71 ± 0.22 µg/mg | Dulcitol Accumulation Lenses Percent Decrease (galactosaemic rats; [1]): 17% | Dulcitol Accumulation Sicatic Nerves Percent Decrease (galactosaemic rats; [1]): 49% | Dulcitol Accumulation Sicatic Nerves (galactosaemic rats; Experiment 2, 62 mg/kg/day in galactose diet, untreated 1.30 ± 0.14): 0.67 ± 0.04 µg/mg | Dulcitol Accumulation Lenses (galactosaemic rats; Experiment 2, 62 mg/kg/day in galactose diet, untreated 12.10 ± 0.30): 10.06 ± 0.43 µg/mg | accumulation of dulcitol in the lenses and sciatic nerves of rats fed galactose (in words) (galactosaemic rats; as compared to an untreated animal): diminishes and alleviates the accumulation of dulcitol | inhibition of lens aldose reductase (in words) (lens aldose reductase): potent inhibitor of lens aldose reductase | Percent Inhibition (lens aldose reductase; concentration 10^-5 Mole/l): 88% | Percent Inhibition (lens aldose reductase; concentration 10^-6 Mole/l): 60% | Percent Inhibition (lens aldose reductase; concentration 10^-7 Mole/l): 18%
